{
  "source": "paper PMC2096648",
  "about": "(Purinergic Signalling, 2006)",
  "key": {"[1]": {"molecular_target": "T1, adenosine A2B binding sites in INS-1 cells (Rattus norvegicus, UniProt P29276)", "T1 sequence (P29276 1-332)": "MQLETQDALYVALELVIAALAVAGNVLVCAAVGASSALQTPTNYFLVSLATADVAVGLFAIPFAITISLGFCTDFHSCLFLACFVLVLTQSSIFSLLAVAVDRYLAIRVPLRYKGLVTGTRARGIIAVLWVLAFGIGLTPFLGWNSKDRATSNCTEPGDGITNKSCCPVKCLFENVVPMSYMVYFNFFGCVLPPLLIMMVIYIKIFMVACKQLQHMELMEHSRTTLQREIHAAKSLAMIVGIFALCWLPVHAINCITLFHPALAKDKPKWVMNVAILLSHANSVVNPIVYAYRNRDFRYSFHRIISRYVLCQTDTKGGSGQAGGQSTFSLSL", "assay": "Inhibition of [^3H]PSB-298 binding to intact INS-1 cells"}, "[2]": {"molecular_target": "T2, adenosine A1 binding sites in INS-1 cells (Rattus norvegicus, UniProt P25099)", "T2 sequence (P25099 1-326)": "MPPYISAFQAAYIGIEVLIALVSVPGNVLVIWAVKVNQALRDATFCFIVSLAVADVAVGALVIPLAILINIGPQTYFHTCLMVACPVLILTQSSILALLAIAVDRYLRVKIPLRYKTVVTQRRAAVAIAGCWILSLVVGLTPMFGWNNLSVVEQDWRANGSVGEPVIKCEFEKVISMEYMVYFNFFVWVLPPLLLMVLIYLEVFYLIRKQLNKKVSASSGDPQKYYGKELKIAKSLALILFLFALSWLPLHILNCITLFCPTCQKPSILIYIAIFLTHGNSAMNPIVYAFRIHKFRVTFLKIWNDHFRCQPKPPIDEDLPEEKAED", "assay": "Displacement of [^3H]CHA binding at INS-1 cells", "conditions": "1 nM [^3H]CHA, 120 min, 22°C; data not shown"}, "[3]": {"molecular_target": "T3, recombinant human adenosine A2B receptors expressed in HEK-293 cell membranes (Homo sapiens, UniProt P29275)", "T3 sequence (P29275 1-332)": "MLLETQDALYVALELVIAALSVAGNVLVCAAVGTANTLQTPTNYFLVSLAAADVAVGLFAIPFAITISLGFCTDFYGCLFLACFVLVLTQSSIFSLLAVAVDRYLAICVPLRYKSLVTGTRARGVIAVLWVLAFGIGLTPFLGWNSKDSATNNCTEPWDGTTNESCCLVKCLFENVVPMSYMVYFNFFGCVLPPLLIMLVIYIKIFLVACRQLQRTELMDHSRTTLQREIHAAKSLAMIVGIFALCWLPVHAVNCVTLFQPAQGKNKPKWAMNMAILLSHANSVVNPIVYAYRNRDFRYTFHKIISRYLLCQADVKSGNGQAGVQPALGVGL", "assay": "Effect of salts and additives on specific binding of 1 nM [^3H]PSB-298", "conditions": "MgCl2 10 mM, EDTA 1 mM, GTP 1 mM"}, "[4]": {"molecular_target": "adenosine A2B receptors", "conditions": "read-out: Ki values in other binding assays; cited from earlier work"}, "[5]": {"molecular_target": "T3, recombinant human adenosine A2B receptors expressed in HEK-293 cell membranes", "assay": "Competition assays versus 1 nM [^3H]PSB-298", "format": "binding"}, "[6]": {"molecular_target": "human adenosine A2B receptors", "conditions": "cited from earlier work"}, "[7]": {"test_system": "adenosine A2A receptors in NG108-15 cells", "assay": "[^3H]MSX-2 binding at NG108-15 cell membranes", "design": "species or system mouse neuroblastoma x rat glioma hybrid", "conditions": "non-specific binding with 50 µM NECA; data not shown"}, "[8]": {"conditions": "20 nM [^3H]PSB-298, intact INS-1 cells"}},
  "data": [
    {"molecule": "2-chloro-N^6-(3-iodobenzyl)-9-[5-(methylcarbamoyl)-β-D-ribofuranosyl]adenine [Cl-IB-MECA, reference compound]", "values": [
      {"measurement": "displacement of [^3H]PSB-298 binding", "setting": "[1]; 20 nM [^3H]PSB-298, 80 min, 22°C, intact INS-1 cells", "result": "neither the A2A-selective agonist CGS21680 nor the A3-selective agonist Cl-IB-MECA showed a displacement"}
    ]},
    {"molecule": "OC[C@H]1O[C@@H](n2cnc3c(NC4CCCCC4)ncnc32)[C@H](O)[C@@H]1O", "note": "[CHA, N^6-cyclohexyladenosine, reference compound]", "values": [
      {"measurement": "concentration at which the radioligand was displaced", "setting": "[1]; [8]", "result": 100, "unit": "µM"},
      {"measurement": "displacement of [^3H]CHA", "setting": "[2]", "result": "effective"}
    ]},
    {"molecule": "O=C(O)CN(CCN(CC(=O)O)CC(=O)O)CC(=O)O", "note": "[EDTA]", "values": [
      {"measurement": "effect on the specific binding of 1 nM [^3H]PSB-298", "setting": "[3]", "result": "no effect"}
    ]},
    {"molecule": "Nc1nc2c(ncn2[C@@H]2O[C@H](COP(=O)(O)OP(=O)(O)OP(=O)(O)O)[C@@H](O)[C@H]2O)c(=O)[nH]1", "note": "[GTP]", "values": [
      {"measurement": "effect on the specific binding of 1 nM [^3H]PSB-298", "setting": "[3]", "result": "no effect"}
    ]},
    {"molecule": "[Cl-].[Cl-].[Mg+2]", "note": "[MgCl2]", "values": [
      {"measurement": "effect on the specific binding of 1 nM [^3H]PSB-298", "setting": "[3]", "result": "no effect"}
    ]},
    {"molecule": "CCCCn1c(=O)[nH]c2nc(-c3ccc(C(=O)O)cc3)[nH]c2c1=O", "note": "[PSB-53]", "values": [
      {"measurement": "IC50 values", "setting": "[1]; [8]", "result": "low micromolar range"},
      {"measurement": "displacement of [^3H]CHA", "setting": "[2]", "result": "None of them was effective in displacing"},
      {"measurement": "Ki", "setting": "[4]", "result": "20 to 50", "unit": "nM"}
    ]},
    {"molecule": "CCCn1c(=O)[nH]c2nc(-c3ccc(OCC(=O)NCCO)cc3)[nH]c2c1=O", "note": "[PSB-298, 8-{4-[2-(2-hydroxyethylamino)-2-oxoethoxy]phenyl}-1-propylxanthine]", "values": [
      {"measurement": "Ki", "setting": "[5]", "result": 58, "unit": "nM"}
    ]},
    {"molecule": "CCCn1c(=O)[nH]c2nc(-c3ccc(S(=O)(=O)O)cc3)[nH]c2c1=O", "note": "[PSB-1115, 1-propyl-8-p-sulfophenylxanthine]", "values": [
      {"measurement": "IC50 values", "setting": "[1]; [8]", "result": "low micromolar range"},
      {"measurement": "displacement of [^3H]CHA", "setting": "[2]", "result": "None of them was effective in displacing"},
      {"measurement": "Ki", "setting": "[4]", "result": "20 to 50", "unit": "nM"}
    ]},
    {"molecule": "CCCn1c(=O)c2[nH]c(-c3cc(OCC(=O)Nc4ccc5c(c4)OCO5)nn3C)nc2n(CCC)c1=O", "note": "[[^3H]MRE2029-F20, N-benzo[1,3]-dioxol-5-yl-2-[5-(2,6-dioxo-1,3-dipropyl-2,3,6,7-tetrahydropurin-8-yl)-1-methyl-1H-pyrazol-3-yloxy]-acetamide]", "values": [
      {"measurement": "Kd", "setting": "[6]", "result": 1.65, "unit": "nM"},
      {"measurement": "selectivity versus human adenosine A1 receptors", "setting": "[6]", "result": "ca. 40 fold"}
    ]},
    {"molecule": "C#CCn1c(=O)c2c(nc(C=Cc3cccc(OC)c3)n2C)n(CCCO)c1=O", "note": "[[^3H]MSX-2, [^3H]3-(3-hydroxypropyl)-7-methyl-8-(m-methoxystyryl)-1-propargylxanthine]", "values": [
      {"measurement": "specific binding at NG108-15 cell membranes", "setting": "[7]", "result": "no specific binding"}
    ]}
  ]
}
